What was measured:
22RV1 cells = assay: Cell growth inhibition, CellTiter-Glo, 72 h; assay type: cell-based; details: Homo sapiens, 72 h culture, mean of N=2
Procedure, shortened: (§1)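 Cells seeded at 5×10^3/well in RPMI-1640 with 10% FBS, compound added next day at 0.5% DMSO final, 72 h at 37°C. CellTiter-Glo luminescence read; % inhibition normalised to 0.5% DMSO (0%) and 1% Tween 20 (100%), plotted against concentration in nM; mean ± SEM, N=2.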

MM1S cells = assay: Cell growth inhibition, CellTiter-Glo, 72 h; assay type: cell-based; details: 72 h culture, mean of N=2
Procedure, shortened: as §1

OPM-2 cells = assay: Cell growth inhibition, CellTiter-Glo, 72 h; assay type: cell-based; details: Homo sapiens, 72 h culture, mean of N=2
Procedure, shortened: as §1

CBP bromodomain = biological target: T1, CBP bromodomain (Homo sapiens, UniProt Q92793); assay: CBP AlphaLISA Assay Kit: binding of CBP bromodomain to acetylated histone substrate; details: 30 min incubation with CBP and biotinylated substrate, N=2, unit inferred
T1 construct: purchased
T1 sequence (Q92793 1085-1192 limits assumed): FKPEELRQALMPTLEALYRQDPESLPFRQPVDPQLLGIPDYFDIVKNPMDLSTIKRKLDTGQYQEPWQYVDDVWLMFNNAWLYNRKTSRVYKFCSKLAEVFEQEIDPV
Procedure: The biochemical activity test of CBP preparations was detected using CBP AlphaLISA® Assay Kit. The detection principle is based on the binding of CBP bromodomain to acetylated histone substrate. The compounds were incubated with CBP and biotinylated substrate for 30 min, followed by the addition of acceptor beads for 15 min and donor beads for 15 min. Alpha counts were read, data were analyzed using Prism 7.0 and IC50 values were calculated.

BRD4 = BRD4 (Homo sapiens, UniProt O60885); assay: BRD4 counter-assay, tabulated with the CBP AlphaLISA test; assay type: binding; details: unit inferred
vCap cells = assay: Cell growth inhibition, CellTiter-Glo, 72 h; assay type: cell-based; details: Homo sapiens, 72 h culture, mean of N=2
Procedure, shortened: as §1

| SMILES | IC50 (22RV1 cells) [nM] | IC50 (MM1S cells; Homo sapiens, MM1.S) [nM] | IC50 (vCap cells) [nM] | IC50 (OPM-2 cells) [nM] | IC50 (CBP bromodomain) [nM] | IC50 (BRD4) [nM] | IC50 (MM1S cells) [nM] |
| --- | --- | --- | --- | --- | --- | --- | --- |
| C=CS(=O)(=O)N[C@H]1CC[C@H](c2cc3c(c(N4CCCc5cc(-c6cnn(C)c6)c(C(F)F)cc54)c2)CN(C(C)=O)C3)CC1 [Compound 1343] | 205 | 39 | – | 8 | 7.5 | 7880 | – |
| CO[C@H]1CC[C@H](n2c([C@@H]3CCCC(=O)N3c3ccc(F)c(F)c3)nc3cc(-c4c(C)noc4C)ccc32)CC1 [CCS1477] | 2520 | – | 140 | 37 | – | 7250 | 220 |
| CC(=O)N1Cc2cc(C3CCN(CC4CCN(c5ccc6c(c5)CN(C5CCC(=O)NC5=O)C6=O)CC4)CC3)cc(N3CCCc4cc(-c5cnn(C)c5)c(C(F)F)cc43)c2C1 (stereo not drawn) [Compound 2058] | 0.31 | 0.3 | 0.29 | 0.23 | – | – | – |
| C=CS(=O)(=O)N[C@H]1CC[C@@H](c2cc3c(c(N4CCCc5cc(-c6cnn(C)c6)c(C(F)F)cc54)c2)CN(C(C)=O)C3)CC1 [Compound 1345, N-((1s,4s)-4-(2-acetyl-7-(7-(difluoromethyl)-6-(1-methyl-1H-pyrazol-4-yl)-3,4-dihydroquinolin-1(2H)-yl)isoindolin-5-yl)cyclohexyl)ethenesulfonamide] | 48 | 15 | 12 | 4 | 9.3 | > 10000 | – |
| C=CS(=O)(=O)N1CCC(c2cc3c(c(N4CCCc5cc(-c6cnn(C)c6)c(C(F)F)cc54)c2)CN(C(C)=O)C3)CC1 [Compound 1344] | 263 | 68 | 33 | 15 | 7 | 7920 | – |
| CC(=O)N1Cc2cc(C3CCN(Cc4ccc(COc5cccc6c5CN(C5CCC(=O)NC5=O)C6=O)cc4)CC3)cc(N3CCCc4cc(-c5cnn(C)c5)c(C(F)F)cc43)c2C1 (stereo not drawn) [Compound 2006, 3-[4-({4-[(4-{2-acetyl-7-[7-(difluoromethyl)-6-(1-methylpyrazol-4-yl)-3,4-dihydro-2H-quinolin-1-yl]-1 ,3-dihydroisoindol-5-yl}piperidin-1-yl)methyl]phenyl}methoxy)-1-oxo-3H-isoindol-2-yl]piperidine-2,6-dione] | 0.47 | 0.27 | 0.4 | 0.19 | – | – | – |
| C=CS(=O)(=O)N[C@H]1CC[C@@H](n2nc(N3CCCc4cc(-c5cnn(C)c5)c(C(F)F)cc43)c3c2CCN(C(C)=O)C3)CC1 [Compound 1388, N-((1s,4s)-4-(5-acetyl-3-(7-(difluoromethyl)-6-(1-methyl-1H-pyrazol-4-yl)-3,4-dihydroquinolin-1(2H)-yl)-4,5,6,7-tetrahydro-1H-pyrazolo[4,3-c]pyridin-1-yl)cyclohexyl)ethenesulfonamide] | 15 | 3 | 2 | 1 | – | – | – |

Second part, led by results:

| IC50 (22RV1 cells) [nM] | IC50 (MM1S cells; Homo sapiens, MM1.S) [nM] | IC50 (vCap cells) [nM] | SMILES | IC50 (OPM-2 cells) [nM] | IC50 (CBP bromodomain) [nM] | IC50 (BRD4) [nM] | IC50 (MM1S cells) [nM] |
| --- | --- | --- | --- | --- | --- | --- | --- |
| 155 | 26 | – | C=CS(=O)(=O)N1CCC(c2cc3c(c(N4CCCc5cc(-c6cnn(C)c6)c(C(F)F)cc54)c2)CN(C(=O)NC)CC3)CC1 [Compound 1347] | 2 | 7.5 | > 10000 | – |
| 5420 | 58 | – | CC(=O)N1Cc2cc(C3CCN(C(=O)/C=C/CN(C)C)CC3)cc(N3CCCc4cc(-c5cnn(C)c5)c(C(F)F)cc43)c2C1 [Compound 1357] | – | 0.96 | 5710 | – |
| 2500 | 48 | – | C=CC(=O)N[C@H]1CC[C@@H](c2cc3c(c(N4CCCc5cc(-c6cnn(C)c6)c(C(F)F)cc54)c2)CN(C(C)=O)C3)CC1 [Compound 1339] | 8 | 4.7 | 7430 | – |
| 438 | 117 | 191 | C=CS(=O)(=O)N1CCC(c2cc3c(c(N4CCCc5cc(-c6cnn(C)c6)c(C(F)F)cc54)c2)CN(C(=O)NC)C3)CC1 [Compound 1391, 4-(7-(difluoromethyl)-6-(1-methyl-1H-pyrazol-4-yl)-3,4-dihydroquinolin-1(2H)-yl)-N-methyl-6-(1-(vinylsulfonyl)piperidin-4-yl)isoindoline-2-carboxamide] | 33 | – | – | – |
| 4 | 0.3 | 0.5 | CNC(=O)N1CCc2c(c(N3CCCc4cc(-c5cnn(C)c5)c(C(F)F)cc43)nn2C2CCN(C(=O)CCl)CC2)C1 [Compound 1377, 1-(1-(2-chloroacetyl)piperidin-4-yl)-3-(7-(difluoromethyl)-6-(1-methyl-1H-pyrazol-4-yl)-3,4-dihydroquinolin-1(2H)-yl)-N-methyl-1,4,6,7-tetrahydro-5H-pyrazolo[4,3-c]pyridine-5-carboxamide] | 0.2 | – | – | – |
| 10 | 3 | 3 | C=CS(=O)(=O)N1CCC(n2nc(N3CCCc4cc(-c5cnn(C)c5)c(C5CC5)cc43)c3c2CCN(C(=O)NC)C3)CC1 [Compound 1378, 3-[7-cyclopropyl-6-(1-methylpyrazol-4-yl)-3,4-dihydro-2H-quinolin-1-yl]-1-(1-(vinylsulfonyl)piperidin-4-yl)-N-methyl-4H,6H,7H-pyrazolo[4,3-c]pyridine-5-carboxamide] | 2 | – | – | – |
| 3.97 | 1.16 | 1.17 | CC(=O)N1Cc2cc(C3CCN(c4cccc5c4CN(C4CCC(=O)NC4=O)C5=O)CC3)cc(N3CCCc4cc(-c5cnn(C)c5)c(C(F)F)cc43)c2C1 (stereo not drawn) [Compound 2080, 3-[4-(4-{2-acetyl-7-[7-(difluoromethyl)-6-(1-methylpyrazol-4-yl)-3,4-dihydro-2H-quinolin-1-yl]-1,3-dihydroisoindol-5-yl}piperidin-1-yl)-1-oxo-3H-isoindol-2-yl]piperidine-2,6-dione] | 0.52 | – | – | – |
| 28 | 5 | 8 | C=CS(=O)(=O)N1CCC(n2nc(N3CCCc4cc(-c5cnn(C)c5)c(C#N)cc43)c3c2CCN(C(=O)NC)C3)CC1 [Compound 1379, 3-[7-cyano-6-(1-methylpyrazol-4-yl)-3,4-dihydro-2H-quinolin-1-yl]-1-[1-(vinylsulfonyl)piperidin-4-yl]-N-methyl-4H,6H,7H-pyrazolo[4,3-c]pyridine-5-carboxamide] | 5 | – | – | – |
| 135 | 33 | 46 | C=CS(=O)(=O)N[C@H]1CC[C@H](c2cc3c(c(N4CCCc5cc(-c6cnn(C)c6)c(C(F)F)cc54)c2)CN(C(=O)NC)CC3)CC1 [Compound 1367, 8-(7-(difluoromethyl)-6-(1-methyl-1H-pyrazol-4-yl)-3,4-dihydroquinolin-1(2H)-yl)-N-methyl-6-((1r,4r)-4-(vinylsulfonamido)cyclohexyl)-3,4-dihydroisoquinoline-2(1H)-carboxamide] | 4 | – | – | – |
